Test in all cases: Kinase Inhibition Assay
One assay deals with G1/S-specific cyclin-D1 (Homo sapiens, UniProt P24385). The text has this:
(§1) In vitro kinase inhibition assay.

A further assay has as its target G1/S-specific cyclin-E1 (Homo sapiens, UniProt P24864).
Description: as §1

Assay [1] deals with Cyclin-dependent kinase 4 (Homo sapiens, UniProt P11802).
Description: as §1

Assay [2] has as its target Cyclin-dependent kinase 2 (Homo sapiens, UniProt P24941).
Description: as §1

Some results are limits rather than exact numbers.

G1/S-specific cyclin-D1, sequence (P24385 whole entry): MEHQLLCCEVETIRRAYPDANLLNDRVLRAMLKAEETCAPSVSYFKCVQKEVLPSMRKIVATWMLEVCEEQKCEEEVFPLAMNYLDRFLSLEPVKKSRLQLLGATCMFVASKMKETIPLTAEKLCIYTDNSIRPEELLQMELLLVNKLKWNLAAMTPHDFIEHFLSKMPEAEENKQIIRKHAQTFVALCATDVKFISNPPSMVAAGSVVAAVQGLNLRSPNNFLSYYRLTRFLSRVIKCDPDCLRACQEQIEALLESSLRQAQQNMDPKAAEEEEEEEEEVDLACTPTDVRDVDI
G1/S-specific cyclin-E1, sequence (P24864 whole entry): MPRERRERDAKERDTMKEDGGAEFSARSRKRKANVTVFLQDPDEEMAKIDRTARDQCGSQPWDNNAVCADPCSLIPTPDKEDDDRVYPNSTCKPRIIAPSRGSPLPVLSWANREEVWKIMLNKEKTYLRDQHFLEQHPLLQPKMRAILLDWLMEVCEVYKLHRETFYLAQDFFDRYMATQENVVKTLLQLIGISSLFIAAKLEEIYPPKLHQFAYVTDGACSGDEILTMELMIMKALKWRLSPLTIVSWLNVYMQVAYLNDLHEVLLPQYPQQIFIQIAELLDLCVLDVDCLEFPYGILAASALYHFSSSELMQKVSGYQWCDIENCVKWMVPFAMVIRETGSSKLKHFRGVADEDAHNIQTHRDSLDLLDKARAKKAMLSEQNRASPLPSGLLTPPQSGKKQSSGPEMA
Cyclin-dependent kinase 4, sequence (P11802 whole entry): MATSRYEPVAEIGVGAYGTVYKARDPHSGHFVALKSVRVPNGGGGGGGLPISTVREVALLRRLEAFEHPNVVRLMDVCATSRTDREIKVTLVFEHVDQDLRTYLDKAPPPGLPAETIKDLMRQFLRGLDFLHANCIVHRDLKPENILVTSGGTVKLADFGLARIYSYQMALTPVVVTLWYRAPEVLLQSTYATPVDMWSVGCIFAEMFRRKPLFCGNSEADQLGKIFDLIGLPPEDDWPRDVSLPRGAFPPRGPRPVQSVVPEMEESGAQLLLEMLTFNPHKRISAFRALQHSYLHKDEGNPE

As for `Cc1nc(N)sc1-c1ccnc(Nc2ccc(N3CCOCC3)cc2)n1` [2-amino-4-methyl-1,3-thiazol-5-yl)-N-[4-(morpholin-4-yl)phenyl]pyrimidin-2-amine, 5], the IC50 on G1/S-specific cyclin-D1 came to 2.4 µM. In other words, the single-digit micromolar range. Take `CNc1nc(C)c(-c2ccnc(Nc3cccc(CN)c3)n2)s1` [Aminopyrimidine, 1]: the IC50 stood at 0.23 µM against G1/S-specific cyclin-D1 and 0.41 µM against G1/S-specific cyclin-E1.

Consider `CCNc1nc(C)c(-c2ccnc(Nc3cccc(CN)c3)n2)s1` [Aminopyrimidine, 2], for which the IC50 against G1/S-specific cyclin-D1 was 0.11 µM; at G1/S-specific cyclin-E1, 0.33 µM. For `COc1ccc(OC)c2c(=S)c3ccccc3[nH]c12` [NSC625987], the IC50 in assay [1] is 0.2 µM; in assay [2], more than 100 µM. Take `Cc1nc(C)c(-c2ccnc(Nc3ccc(N)cc3)n2)s1` [Aminopyrimidine, 4]: the concentration for half-maximal inhibition (IC50) on G1/S-specific cyclin-D1 was 3.8 µM; on G1/S-specific cyclin-E1 it was 0.23 µM. As for `CNc1nc(C)c(-c2ccnc(Nc3cccc(CNC(C)=O)c3)n2)s1` [Aminopyrimidine, 3], the IC50 against G1/S-specific cyclin-D1 was 0.89 µM; against G1/S-specific cyclin-E1, 0.43 µM. With `CNc1nc(C)c(-c2ccnc(Nc3ccc(N4CCNCC4)cc3)n2)s1` [Aminopyrimidine, 10], the IC50 against G1/S-specific cyclin-D1 was 0.007 µM. For `O=C1c2ccccc2-[n+]2ccc3c([nH]c4ccccc43)c21`, the IC50 was 0.35 µM in assay [1] and more than 50 µM in assay [2].

As to `Cc1nc(C)c(-c2ccnc(Nc3ccc(N4CCN(CCO)CC4)cc3)n2)s1` [Aminopyrimidine, 8], the IC50 was found to be 0.43 µM against G1/S-specific cyclin-D1 and 2.2 µM against G1/S-specific cyclin-E1. Taken in the same sequence, the figures for `Cc1nc(C)c(-c2ccnc(Nc3ccc(N4CCN(C)CC4)cc3)n2)s1` [Aminopyrimidine, 7] were 0.16 µM and 1.02 µM. For `Cc1nc(C)c(-c2ccnc(Nc3ccc(N4CCNCC4)cc3)n2)s1` [Aminopyrimidine, 6], the IC50 against G1/S-specific cyclin-D1 was determined as 0.64 µM; against G1/S-specific cyclin-E1, 1.1 µM. For `Cc1nc(C)c(-c2ccnc(Nc3ccc(N4CCOCC4)cc3)n2)s1` [Aminopyrimidine, 5], in that order: 4 µM and 2 µM.

Source of the values: BindingDB's records for doi:10.1016/j.chembiol.2004.03.022 (Cyclacel, 2004).
